What is called IC50 is the concentration that gives 50% inhibition. Low values mean greater potency, high ones weaker potency.

Structures are written as SMILES. Several values for one entry are separate records, joined by “and”; a condition that tells them apart may be missing. Equal entries are not always repeated. Structures can show the parent of a compound that is named as a salt.

This test can be described thus: Tested for its ability to antagonize epinephrine induced primary wave aggregation in human platelets at alpha-2A-adrenergic receptor sites.
`OC(c1cnc[nH]1)(c1cccc2ccccc12)C(F)(F)F` (stereo unspecified) [2,2,2-Trifluoro-1-(1H-imidazol-4-yl)-1-naphthalen-1-yl-ethanol; hydrochloride]: the IC50 is above 300 µM.

Regarding `CC(c1cnc[nH]1)c1cccc2ccccc12` (stereo unspecified) [4-(1-Naphthalen-1-yl-ethyl)-1H-imidazole], the IC50 is 12.3 µM and 9.1 µM.

Take `COC(c1cnc[nH]1)c1cccc2ccccc12` (stereo unspecified) [4-(Methoxy-naphthalen-1-yl-methyl)-1H-imidazole; hydrochloride]: the IC50 was determined as 380 µM.

Consider `c1ccc2c(Cc3cnc[nH]3)cccc2c1` [4-Naphthalen-1-ylmethyl-1H-imidazole; hydrochloride], for which the IC50 was 3 µM.

In turn, `OC(c1cnc[nH]1)c1cccc2ccccc12` (stereo unspecified) [(1H-Imidazol-4-yl)-naphthalen-1-yl-methanol; hydrochloride] came in with an IC50 of 61.9 µM.

Molecule `O=C(c1cnc[nH]1)c1cccc2ccccc12` [(1H-Imidazol-4-yl)-naphthalen-1-yl-methanone; oxalic acid] displayed an IC50 of 580 µM.
